Source: patent publication US20080153872A1, “Bis-(Coumarin) Compounds With Anti-Inflammatory Activity” (priority 2005, published 2008)

Tests used:
Balb/cJ mice = test: LPS induced pulmonary neutrophilia in mice; format: in vivo, mouse; conditions: LPS challenged mice; i.n., i.p. or per os
Method: Male Balb/cJ mice (Iffa Credo, France) weighing ˜25 g are randomly grouped into a negative control group, positive control group and groups treated with compounds to be assayed). Test compounds, as well as vehicle (DMSO+0.5% methyl-cellulose) (all from Sigma), are administered i.n., ip. or per os two hours prior to administration of lipopolysaccharide (LPS) (E. coli, serotype 0111:B4, Sigma) or two hours prior and two hours after administration of LPS. Test compounds are administered at a single dose (two hours prior the challenge) or divided into two doses (two hours prior and two hours after the challenge). LPS solution in phosphate buffered saline (PBS) (Sigma) is administered intranasally in volume of 60 μL at concentration of 33,33 μg/mL, to all experimental groups except the negative control group, which received the same volume (60 μL) of vehicle PBS. During the challenge, animals were anaesthetized by using intraperitoneal anaesthesia. Animals are euthanized by i.p. anesthesia overdose approximately 24 hours after application of LPS to obtain bronchoalveolar lavage fluid (BALF), which is used to determine total protein concentration as well as concentrations of cytokines, such as IL-1β and TNF-α, absolute number of cells, and percentage of neutrophils in BALF. Bronchoalveolar lavage (BAL) is performed by infusing 1 mL of PBS divided into 3 separate volumes (0.4, 0.3 and 0.3 ml) through trachea into the lungs. The fluid is immediately withdrawn and the cell suspension stored into previously prepared 1.5 mL Eppendorf tube. Bronchoalveolar lavage fluid (BALF) is then centrifuged at […] for 5 min (4° C.). Cells are resuspended in 700 μL of PBS. To prepare cytospins, 320 μL of suspension is centrifuged at 250 rpm for 10 min (Cytospin-3, Shandon Instruments). Cells are stained with Dif-Quik (Dade Behring) to determine percentage of neutrophils by counting of at least 200 cells. The remaining resuspended cells are used for total cell count in BALF analysis (Sysmex SF 3000). […] Accumulation of granulocytes and mononuclear cells in peribronclhial (PB) and perivascular (PV) lung tissue areas and alveolar spaces is monitored.
Results can be expressed as (I) decrease of absolute cell number per mL in BALF, (II) decrease of number of neutrophils per mL in BALF, (III) reduction of relative number (percentage) of neutrophils in BALF, (IV) reduction of cytokine concentrations in BALF, as well as (V) suppression of accumulation of granulocytes and mononuclear cells in peribronchial (PB) and perivascular (PV) lung tissue areas and in alveolar spaces by pathohistological scoring of treated animals compared to positive control (LPS stimulated, but untreated animals).

[1] = system: Human prostanoid receptor; test: Human prostanoid receptor assay ([3H]-PGD2 competition); format: binding; conditions: 10 μM concentration; CHO-K1
Method: (§1) All compounds were dissolved in dimethyl sulfoxide (DMSO). Final concentration of the DMSO in all tests was 1% (v/v). Inhibition in all tests is considered preferred if it exceeds 50% at 10 μM concentration (or less).
Human prostanoid receptor is expressed in Chinese hamster ovary cell line, clone K1 (CHO-K1). Substances and radioactive competitor (tritium labelled Prostaglandin D2 in 1.7 nM concentration) are incubated with cells in HEPES buffer for 2 hours at 25° C. in the presence of manganese ions. Level of the bound PGD2 is measured by scintillation counting, and competition is calculated from comparing the total amount of the bound PGD2 in treated versus control cells. Prostanoids are involved in many physiological and pathological processes, from inflammation to pain.

human PDE4 = test: Human PDE4 assay (U937); format: biochemical; conditions: 10 μM concentration
Method: as §1
PDE4 assay. PDE is implicated in diseases such as chronic obstructive pulmonary disease and neutrophilia. Human monocytic leukemia cell line U937 is pre-incubated at 25° C. in Tris-HCl buffer containing magnesium ions for 15 minutes. 1.01 μM tritium labeled cyclic adenosine monophosphate (cAMP) is added as substrate, followed by incubation at 25° C. for 20 minutes. Percentage of inhibition is calculated by comparing the adenosine levels in supernatant which is formed from cAMP in treated versus control cells.

TxA2 receptor = target: T1, TxA2 receptor (Homo sapiens, UniProt P21731); test: Human thromboxane A2, TxA2, assay (SQ-29548 competition); format: binding; conditions: 10 μM concentration; HEK-293
T1 construct: expressed in transfected cells; host or cells: HEK-293
T1 sequence (P21731 1-343): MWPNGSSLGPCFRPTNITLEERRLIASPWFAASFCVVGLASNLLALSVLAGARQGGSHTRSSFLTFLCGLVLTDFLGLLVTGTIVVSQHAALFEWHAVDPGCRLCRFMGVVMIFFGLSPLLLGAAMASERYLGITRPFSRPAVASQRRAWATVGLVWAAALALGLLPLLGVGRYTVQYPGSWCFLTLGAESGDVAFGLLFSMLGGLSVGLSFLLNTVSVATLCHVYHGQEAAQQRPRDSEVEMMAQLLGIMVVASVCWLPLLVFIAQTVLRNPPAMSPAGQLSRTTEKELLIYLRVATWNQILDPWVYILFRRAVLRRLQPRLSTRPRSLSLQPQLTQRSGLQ
Method: as §1
TxA2 receptor is expressed in HEK-293 cell line. Compounds and radiolabelled competitor SQ-29548 are incubated for 30 minutes at 25° C. Level of bound SQ-29548 is measured by scintillation counting, and competition is calculated from the total amount of the bound SQ-29548. […] is an unstable lipid mediator involved in blood clotting, and immune processes.

CD1 mice = test: PMA induced ear oedema in CD1 mice; format: in vivo, mouse; conditions: topical, single dose of 250 or 100 μg/15 μL/ear; statistically significant vs positive control
Method: Male CD1 mice (Iffa Credo, France) weighing ˜35-40 g were randomly grouped (n=8 in vehicle treated test group, dexamethasone treated control group as well as in groups treated with compounds to be assayed). Test compounds, dexamethasone as well as vehicle (Trans-phase Delivery System, containing benzyl alcohol 10%, acetone 40% and isopropanol 50%) (all from Kemika, Croatia), were administered topically to the internal surface of the left ear thirty minutes prior to administration of phorbol 12-myristate 13-acetate (PMA) (Alexis biochemicals, USA). Test compounds were administered at a single dose of 250 or 100 μg/15 μL/ear and dexamethasone at a single dose of 50 μg/15 μL/ear. Thirty minutes later, 0.01% PMA solution in acetone was applied topically to the same area of each animal in a volume of 12 μL/ear. During the treatment and challenge, animals were anaesthetized by using inhalation anaesthesia. Six hours after the challenge, animals were euthanized by asphyxiation in 100% CO2 atmosphere. For assessing the auricular oedema, 8 mm discs were cut out of left and right auricular pinna and weighed. The degree of oedema was calculated by subtracting the weight of 8 mm disc of the untreated ear from that of the treated contralateral ear.

Compound | reduction of percentage of neutrophils and/or their total number in BALF and/or by histological scoring (Balb/cJ mice) | human prostanoid receptor, competition with tritium labelled PGD2 [1] | inhibition of human PDE4 activity (human PDE4) | TxA2 receptor, competition with SQ-29548 (TxA2 receptor) | suppression of ear oedema (CD1 mice)
CC(=O)C(c1c(O)c2cccc(C(C)C)c2oc1=O)c1c(O)c2cccc(C(C)C)c2oc1=O [Example 19] | statistically significant reduction | significantly relevant activity | significantly inhibited | significantly relevant activity | considered active
CC(C)c1cccc2c(O)c(C(CO)c3c(O)c4cccc(C(C)C)c4oc3=O)c(=O)oc12 [Example 30] | statistically significant reduction | significantly relevant activity | significantly inhibited | significantly relevant activity | considered active
CC(C)c1cccc2c(O)c(C(C(=O)OCCO)c3c(O)c4cccc(C(C)C)c4oc3=O)c(=O)oc12 [Example 50] | statistically significant reduction | significantly relevant activity | significantly inhibited | significantly relevant activity | considered active
